Consider 32 compounds from ChEMBL document CHEMBL3046205, “4-pyridyl carbonyl and related compounds as thrips lures: effectiveness for onion thrips and new zealand flower thrips in field experiments” (2007).

Holding throughout (assay type): functional
Assay [1] deals with Thrips obscuratus. Put plainly: Thrips luring activity against female New Zealand Thrips obscuratus (flower thrips) assessed as ratio of thrips in baited traps to unbaited traps during field trapping study.
Assay [2] concerns Thrips obscuratus. Put plainly: Thrips luring activity against male New Zealand Thrips obscuratus (flower thrips) assessed as ratio of thrips in baited traps to unbaited traps during field trapping study.
The next assay has as its system Thrips tabaci. The experiment in a line: Thrips luring activity against female Thrips tabaci (onion thrips) assessed as ratio of thrips in baited traps to unbaited traps during field trapping study.

For the compound `ClC(Cl)Cl` [CHLOROFORM], the Ratio is recorded as 0 in the assay with Thrips obscuratus [1], 10.1 in the assay on Thrips obscuratus [2] and 1.1 in the assay on Thrips tabaci.
As for `CC(=O)c1ccccc1N` [2-AMINOACETOPHENONE], the values for the Ratio in the assay on Thrips obscuratus [1], in the assay with Thrips obscuratus [2] and in the assay on Thrips tabaci were 20.7, 26.7 and 6, respectively.
For `CCOC(=O)c1ccccn1` [ETHYL PICOLINATE], in that order: 4.1, 5.9 and 2.8.
Take `CCOC(=O)c1ccccc1N` [ETHYL ANTHRANILATE]: the Ratio in the assay with Thrips obscuratus [1] is listed as 1.6; in the assay with Thrips obscuratus [2] it was 0.6; with Thrips tabaci, 1.1.
For `c1cc(C2OCCO2)ccn1` [PYRIDINE, 4-(1,3-DIOXALAN-2-YL)], in that order: 16.6, 20.4 and 5.3.
In the case of `CC(C)OC(=O)c1ccncc1` [ISOPROPYL ISONICOTINATE], the values for the Ratio in the assay with Thrips obscuratus [1], in the assay with Thrips obscuratus [2] and in the assay on Thrips tabaci were 9, 0 and 8.8, respectively.
For `COC(=O)c1ccccc1O` [METHYL SALICYLATE], in that order: 24.8, 13.3 and 4.
As to `CC/C=C\CC1C(=O)CCC1CC(=O)OC` (stereo unspecified) [METHYL JASMONATE], the values for the Ratio with Thrips obscuratus [1], with Thrips obscuratus [2] and with Thrips tabaci were 0.8, 0.9 and 0.7, respectively.
Taken in the same sequence, the figures for `OCCc1ccccc1` [PHENYLETHYL ALCOHOL] were 9.8, 9.5 and 3.8.
Taken in the same sequence, the figures for `CCOC(=O)c1ccnc(Cl)c1` [ETHYL-2-CHLOROPYRIDINE-4-CARBOXYLATE] were 15.1, 19.3 and 1.7.
With `COC(=O)c1ccccc1` [METHYL BENZOATE], the Ratio is reported as 49.1 in the assay with Thrips obscuratus [1], 50.5 in the assay on Thrips obscuratus [2] and 6.6 in the assay on Thrips tabaci.
Consider `CCC(=O)c1ccncc1` [ETHYL 4-PYRIDYLKETONE], for which the Ratio turned out to be 19.4 in the assay with Thrips obscuratus [1], 0 in the assay on Thrips obscuratus [2] and 13.5 in the assay on Thrips tabaci.
On to `CCCOC(=O)c1ccncc1` [N-PROPYL ISONICOTINATE], for which the Ratio with Thrips obscuratus [1] was determined as 9; in the assay with Thrips obscuratus [2] it was 0; with Thrips tabaci it was 15.4.
For `COc1ccc(C=O)cc1` [ANISALDEHYDE], in that order: 26.2, 22.6 and 4.
Taken in the same sequence, the figures for `CCCCCCCCCCOC(=O)c1ccncc1` [N-DECYL ISONICOTINATE] were 14.9, 0 and 6.8.
As to `OCCc1ccncc1` [4-(2-HYDROXYETHYL)PYRIDINE], the Ratio in the assay on Thrips obscuratus [1] is on record as 0; in the assay on Thrips obscuratus [2], 0; in the assay with Thrips tabaci it was 1.3.
Consider `CCOC(=O)c1ccncc1` [ETHYL ISONICOTINATE], for which the Ratio in the assay on Thrips obscuratus [1] is 31.6; with Thrips obscuratus [2], 28.5; in the assay with Thrips tabaci it was 30.8.
Taken in the same sequence, the figures for `CC(=O)/C=C/C1C(C)=CCCC1(C)C` (stereo not drawn) [ALPHA-IONONE] were 1.8, 0 and 1.3.
For `CC(=O)c1ccncc1` [METHYL 4-PYRIDYLKETONE], in that order: 0, 10.3 and 7.6.
For `O=Cc1ccncc1` [4-FORMYLPYRIDINE], in that order: 7.9, 4.9 and 1.6.
`CCOC(=O)c1ccccc1` [ETHYL BENZOATE]: the Ratio is reported as 35.4 in the assay on Thrips obscuratus [1], 24.8 in the assay with Thrips obscuratus [2] and 2.1 in the assay on Thrips tabaci.
On to `N#Cc1ccncc1` [ISONICOTINONITRILE], for which the Ratio in the assay with Thrips obscuratus [1] came out at 0; in the assay with Thrips obscuratus [2], 19.9; in the assay with Thrips tabaci, 2.4.
Taken in the same sequence, the figures for `CCCCCCOC(=O)c1ccncc1` [ISONICOTINIC ACID HEXYL ESTER] were 0, 0 and 1.2.
Regarding `CC/C=C\CC1=C(C)CCC1=O` [CIS-JASMONE], the Ratio in the assay with Thrips obscuratus [1] came to 42.1; in the assay on Thrips obscuratus [2], 24.5; in the assay on Thrips tabaci it was 1.2.
Taken in the same sequence, the figures for `O=Cc1ccccc1` [BENZALDEHYDE] were 5, 3.6 and 4.
As to `CC(=O)/C=C/C1=C(C)CCCC1(C)C` [BETA-IONONE], the Ratio came out at 1.8 in the assay on Thrips obscuratus [1], 3.8 in the assay with Thrips obscuratus [2] and 2.6 with Thrips tabaci.
With `CCOC(=O)c1cccnc1` [ETHYL NICOTINATE], the Ratio was found to be 157.6 in the assay with Thrips obscuratus [1], 84.8 in the assay with Thrips obscuratus [2] and 3.1 in the assay on Thrips tabaci.
Consider `COC(=O)c1ccccc1N` [METHYL ANTHRANILATE], for which the Ratio in the assay on Thrips obscuratus [1] is 28.3; in the assay on Thrips obscuratus [2] it was 22.1; with Thrips tabaci it was 3.5.
For the compound `O=Cc1ccccc1O` [SALICYLADEHYDE], the results for the Ratio in the assay with Thrips obscuratus [1], with Thrips obscuratus [2] and in the assay with Thrips tabaci were 20.7, 15.7 and 1.9, respectively.
Taken in the same sequence, the figures for `COC(=O)c1ccncc1` [METHYL ISONICOTINATE] were 44.1, 5.1 and 18.9.
For `CCOC(=O)c1ccccc1O` [ETHYL SALICYLATE], in that order: 32.6, 48.5 and 3.
Taken in the same sequence, the figures for `CCOC(=O)C1CCNCC1` [ETHYL ISONIPECOTATE] were 0, 0 and 4.
